According to the SangsterLogP compilation:

SMILES | logP
CCC(=O)C(CCN(C)C)(c1ccccc1)c1ccc(F)cc1 (stereo not drawn) | 4.19
CCC(=O)C(CCN(C)C)(c1ccccc1)c1cccc(F)c1 (stereo not drawn) | 4.17
CCC(=O)C(CCN(C)C)(c1ccccc1)C1CCCC1 (stereo not drawn) | 4.53
CCC(=O)C(CCN(C)C)(c1ccccc1)c1ccc(O)cc1 (stereo not drawn) | 3.45
CCC(=O)C(CCN(C)C)(c1ccccc1)c1ccc(Br)cc1 (stereo not drawn) | 5.23
CCC(=O)C(CCN(C)C)(c1ccc(F)cc1)c1ccc(F)cc1 | 4.84
CCC(=O)C(CCN(C)C)(c1ccccc1)c1ccc(Cl)cc1 (stereo not drawn) | 4.9
CCC(=O)C(CCN(C)C)(c1ccccc1)c1ccc(C)cc1 (stereo not drawn) | 4.93
CCC(=O)C(CCN(C)C)(c1ccccc1)c1ccc(OC)cc1 (stereo not drawn) | 4.28
CCC(=O)C(CCN(C)C)(c1ccccc1)C1CCCCCC1 (stereo not drawn) | 5.91
CCC(=O)C(CCN(C)C)(c1ccccc1)C1CCCCC1 (stereo not drawn) | 5.13
CCC(=O)C(CCN(C)C)(c1ccccc1)c1ccccc1 | 4.15
CCC(=O)C(CCN(C)C)(c1ccccc1)c1ccc(SC)cc1 (stereo not drawn) | 4.96
